Here are results for one molecule from US7943648B2, “Salts of imidazole-5-carboxylic acid derivatives, a method for preparing same and pharmaceutical compositions comprising same” (Shanghai Allist Pharmaceutical Inc., priority 2006, dated 2011).

Series [1] is described as follows: SD rats drug absorption test. The method, then:
The intravenous blood was collected from venous plexus behind eyeballs of rats at different time before and after administration, and the blood plasma is prepared by separated.
Blood samples are collected from an orbit at different time after the administration.

The conditions of series [2]: solvent H2O; stirred strongly 30 seconds in each 5 minutes, observed within 30 minutes.
From the text: Each compound prepared above was weighted and added to solvents with different volume capacity.

One may read the Tmax as the time from dosing to the highest level. Consider `CCCCc1nc(Cl)c(C(=O)OCOC(=O)OC(C)C)n1Cc1ccc(-c2ccccc2-c2nnn[nH]2)cc1` [Compound 1, 2-butyl-4-chloro-1-[2′-(1H-tetrazol-5-yl)1,1′-biphenyl-methyl]imidazole-5-carboxylic acid, 1-[(isopropoxycarbonyl)oxy]methyl ester], for which the Bioavailability in series [1] (intragastric infusion versus EXP3174 intravenous 7.9 mg/kg, based on plasma EXP3174, 7.9 mg/kg) stood at 4.11%. Moreover, the Tmax in series [1] (intragastric infusion, same dosage as EXP3174 (7.9 mg/kg), active metabolite EXP3174 measured in blood plasma by LC-MS/MS) is reported as 2 h. Moreover, in series [2], the “Solubility (in H2O)” value is “Slightly soluble (1 g of compound can be dissolved in 100 ml˜1000 ml solvent)”.
